Measurements from patent US20130225671A1, “Methods of Treating Seizure Disorders” (Massachusetts Institute of Technology, priority 2010, published 2013).
“Also recorded” adds a separate entry of the source. Marks after values point to notes of the source that are not given here.

What was measured:
[1] = tested on: protein synthesis in WT and Fmr1 KO hippocampal slices; assay: Protein synthesis in hippocampal slices (35S-Met/Cys metabolic labeling); assay type: cell-based, mouse
Description: Dorsal hippocampal slices were prepared from juvenile (postnatal day 25-32) WT and Fmr1 KO mice using the same metabolic labeling procedure described in [35]. Briefly, 500 μm slices were recovered in carbogenating, 32.5° C. ACSF (in mM: NaCl: 124, KCl: 3, NaH2PO4: 1.25, NaHCO3: 26, dextrose: 10, MgCl2: 1, CaCl2: 2, saturated with 95% O2 and 5% CO2), pre-incubated in actinomycin D (ActD, 25 μM) for 30 min to prevent transcription, and protein synthesis measured over 30 minutes via incorporation of a ^35S-labeled methionine/cysteine mix (^35S-Met/Cys).
Group I mGluR activate several signal pathways.
Mice: Fmr1 KO (Jackson Labs) and WT littermates, bred on the C57BL6 or FVB background strains, were group housed and maintained in a 12:12 h light:dark cycle. An In vitro hippocampal slice assay was used herein to recapitulate the exaggerated protein synthesis phenotype seen in the Fmr1 KO[6].
Metabolic labeling: Experiments were performed on male WT and Fmr1 KO mice (postnatal day 25-32), blind to genotype, as described herein. Briefly, 500 μm slices were recovered for 4 h in 32.5° C. […] After labeling, slices were homogenized, and labeled proteins isolated by TCA precipitation. Samples were read with a scintillation counter and also subjected to a protein concentration assay (BIO-RAD). Final data were expressed as counts per minute (CPM) per μg protein, normalized to the ^35S-Met/Cys ACSF used for incubation, and the average incorporation of all samples analyzed in that experiment.

[2] = tested on: ERK1/2; assay: ERK1/2 activation (phosphorylation) in hippocampal slices, immunoblotting; assay type: cell-based, mouse; settings: for ERK1/2 activation (phosphorylation; WT veh = 100%): 1 hour
[3] = tested on: Fmr1 KO mouse; assay: Audiogenic seizures (AGS) in Fmr1 KO and WT mice;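 on all read-outs here: male WT and Fmr1 KO littermates aged P17-25 given a 2 min seizure-provoking stimulus, scored blind to genotype for wild running, clonic and tonic seizures and death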; settings: for incidence of AGS: Example 1, vehicle KO 73%; for incidence of AGS / Clonic seizure incidence / Death incidence / Tonic seizure incidence / WR (wild running) incidence: i.p. 100 mg/kg SL 327 or 30 mg/kg Formula I; for Clonic seizure incidence / Death incidence / Tonic seizure incidence / WR (wild running) incidence: 1 h before stimulus; for AGS incidence: 1 h, vehicle KO about 74%
Description: One hour later, mice were exposed to a seizure-inducing stimulus for 2 minutes, and scored for four stages of AGS: wild running (WR; pronounced, undirected running and thrashing), clonic seizure (violent spasms accompanied by loss of balance), tonic seizure (postural rigidity in limbs), and death [35, 37, 39]. All animals were injected and scored blind to genotype.
AGS: Experiments were performed using male WT and Fmr1 KO littermates (P17-25) as described herein. […] Immediately prior to testing, mice were transferred to a quiet (about <60 dB ambient sound) room for 1 hour. Mice were then transferred to a transparent plastic test chamber and, after 1 minute of habituation, exposed to a 130 dB stimulus (recorded sampling of a modified personal alarm, RADIOSHACK model 49-1010) for about 2 minutes. Each testing session contained mice from both genotype and treatment groups. For each group, incidence of the following stages of AGS was calculated: wild running (WR; pronounced, undirected running and thRashing), clonic seizure (violent spasms accompanied by loss of balance), tonic seizure (postural rigidity in limbs), and death. All aspects of the experiments were performed blind to genotype.
For each mouse, four stages of increasing AGS severity were scored: wild running, clonic seizure, tonic seizure, or death[16].

[4] = tested on: Ras; assay: Ras activation assay (Ras-GTP pull-down) in hippocampal slices; assay type: cell-based, mouse
Description: Ras activation assay: Slices (4-6 per animal) were prepared exactly as for metabolic labeling, and Ras-GTP isolated using the Active Ras Pull-Down and Detection kit (PIERCE) according to manufacturer's instructions.
Active (GTP-bound) Ras was isolated from homogenized slices using a GST-pull down assay, and compared to total Ras.

[5] = tested on: TNF-α; settings: human whole blood, TPA-induced; cited from earlier work
[6] = tested on: MEK; settings: read-out: MEK Enzyme IC50; cited from earlier work
[7] = tested on: IL-1β; settings: human whole blood, TPA-induced; cited from earlier work
[8] = tested on: Malme-3M pERK; settings: Malme-3M cells; cited from earlier work
[9] = tested on: Rat Collagen-Induced Arthritis; settings: PO, QD×7; cited from earlier work
[10] = tested on: Cytochrome p450 (5 major isoforms); settings: read-out: Cytochrome p450 Inhibition-IC50; cited from earlier work
[11] = tested on: Rat carrageenan paw edema; settings: PO, once; cited from earlier work
[12] = tested on: rat adjuvant-induced arthritis; settings: PO, QD×7; cited from earlier work
[13] = tested on: IL-6; settings: human whole blood, TPA-induced; cited from earlier work
[14] = tested on: 25 receptors; settings: cited from earlier work
[15] = tested on: ~200 other kinases; settings: ~200 other kinases at 1 μM; cited from earlier work
[16] = WT hippocampal slices, 5 μM U0126
[17] = Fmr1 KO mice, C57BL6, 30 mg/kg Formula I acid i.p.
[18] = Fmr1 KO hippocampal slices, 100 μM Formula I in lactone form (Example 1)
[19] = Fmr1 KO hippocampal slices, 100 μM Formula I in lactone form (Example 1), listed as LOVASTATIN
[20] = Fmr1 KO hippocampal slices, 10 μM Formula I
[21] = Fmr1 KO hippocampal slices, 50 μM Formula I
[22] = WT hippocampal slices, 10 μM Formula I
[23] = WT hippocampal slices, 50 μM Formula I

## N#CC(=C(N)Sc1ccccc1N)C(C#N)=C(N)Sc1ccccc1N [Formula U0126, 1,4-diamino-2,3-dicyano-1,4-bis[2-aminophenylthio]butadiene]
[1]; [16]
  protein synthesis (WT vehicle = 100%): 94±6%
[2]; [16]
  ERK1/2 activation (WT vehicle = 100%): 15±3%

## N#C/C(=C(\N)Sc1ccc(N)cc1)c1ccccc1C(F)(F)F [SL 327, alpha-[amino[(4-aminophenyl)thio]methylene]-2-(trifluoromethyl)benzeneacetonitrile]
[3]; Fmr1 KO mice
  incidence of AGS: 0%
  Clonic seizure incidence: 0%*
  Death incidence: 0%
  Tonic seizure incidence: 0%*
  WR (wild running) incidence: 0%*
[3]; WT mice
  Clonic seizure incidence: 0%*
  Death incidence: 0%
  Tonic seizure incidence: 0%
  WR (wild running) incidence: 0%*

## CCC(C)C(=O)OC1CC(C)C=C2C=CC(C)C(CCC(O)CC(O)CC(=O)[O-])C21.[Na+] (stereo not drawn) [Formula I acid]
[3]; [17]
  AGS severity (distribution of AGS scores): attenuates AGS severity
  AGS incidence: significantly reduces AGS incidence

## CC[C@H](C)C(=O)O[C@H]1C[C@@H](C)C=C2C=C[C@H](C)[C@H](CC[C@@H]3C[C@@H](O)CC(=O)O3)[C@H]21 [Formula I, (1S,3R,7S,8S,8aR)-8-{2-[(2R,4R)-4-hydroxy-6-oxooxan-2-yl]ethyl}-3,7-dimethyl-1,2,3,7,8,8a-hexahydronaphthalen-1-yl-(2S)-2-methylbutanoate]
[3]; [17]
  AGS severity (distribution of AGS scores): significantly lessens the severity of seizures
  AGS incidence: about 28%
[3]; Fmr1 KO mice, C57BL6, 30 mg/kg Formula I lactone i.p.
  AGS severity (distribution of AGS scores): significantly reduces AGS severity
[3]; Fmr1 KO mice, C57BL6, 100 mg/kg Formula I acid i.p.
  AGS severity (distribution of AGS scores): attenuates AGS severity
[3]; Fmr1 KO mice, C57BL6, oral, 48 h feeding of 0.1% Formula I chow
  AGS severity (distribution of AGS scores): significantly reduces AGS severity
[3]; Fmr1 KO mice
  incidence of AGS: 21%
  Clonic seizure incidence: 12%*
  Death incidence: 8%
  Tonic seizure incidence: 6%*
  WR (wild running) incidence: 21%*
[3]; Fmr1 KO mice, FVB, 30 mg/kg Formula I i.p., 30 mg/kg
  AGS severity (distribution of AGS scores): similarly unaffected; also recorded: does not significantly reduce AGS severity
[3]; Fmr1 KO mice, FVB, 100 mg/kg Formula I i.p., 100 mg/kg
  AGS severity (distribution of AGS scores): significantly reduces AGS severity
[3]; WT mice
  Clonic seizure incidence: 8%*
  Death incidence: 8%
  Tonic seizure incidence: 8%
  WR (wild running) incidence: 13%**
[1]; Fmr1 KO hippocampal slices, 10 μM Formula I (acid form, Example 2)
  protein synthesis (WT veh = 100%): 115±7%
[1]; [18]
  protein synthesis (WT vehicle = 100%): 104±2%
[1]; [19]
  protein synthesis (WT vehicle = 100%): can correct protein synthesis
[1]; WT hippocampal slices, 10 μM Formula I (acid form, Example 2)
  protein synthesis (WT veh = 100%): 103±4%
[1]; WT hippocampal slices, 50 μM Formula I (acid form, Example 2)
  protein synthesis (WT veh = 100%): 88±5%
[2]; [20]
  ERK1/2 activation (phosphorylation; WT veh = 100%): 90±6%
[2]; [21]
  ERK1/2 activation (phosphorylation; WT veh = 100%): 78±5%
[2]; [18]
  ERK1/2 activation (WT vehicle = 100%): 181±6%
[2]; [19]
  ERK1/2 activation (WT vehicle = 100%): reduce ERK1/2 activation
[2]; [22]
  ERK1/2 activation (phosphorylation; WT veh = 100%): 94±8%
[2]; [23]
  ERK1/2 activation (phosphorylation; WT veh = 100%): 84±5%
[2]; WT hippocampal slices, 100 μM Formula I in lactone form (Example 1)
  ERK1/2 activation (WT vehicle = 100%): 187±6%
[2]; hippocampal slices, Formula I acid form, FIGS. 2F and 2G
  ERK1/2 in hippocampal slices (in words): downregulates ERK1/2
[4]; [20]
  active (GTP-bound) Ras compared to total Ras (WT veh = 100%): 89±8%
[4]; [21]
  active (GTP-bound) Ras compared to total Ras (WT veh = 100%): 61±9%
[4]; [22]
  active (GTP-bound) Ras compared to total Ras (WT veh = 100%): 87±14%
[4]; [23]
  active (GTP-bound) Ras compared to total Ras (WT veh = 100%): 61±12%
[4]; hippocampal slices, Formula I acid form, FIGS. 2D and 2E
  Ras activation in hippocampal slices (in words): inhibits Ras activation

## Cc1cccc(C#Cc2ccccc2)n1 [MPEP]
[1]; Fmr1 KO hippocampal slices, 50 μM MPEP, 5 minutes
  protein synthesis (WT vehicle = 100%): 95±2%
[1]; WT hippocampal slices, 50 μM MPEP, 5 minutes
  protein synthesis (WT vehicle = 100%): 104±2%

## Cn1cnc2c(F)c(Nc3ccc(Br)cc3F)c(C(=O)NOCCO)cc21 [ARRY-162]
[5]
  IC50: 23 nM
[6]
  IC50: 12 nM
[7]
  IC50: 21 nM
[8]
  IC50: 11 nM
[9]
  Rat Collagen-Induced Arthritis ED50: 3 mg/kg
[10]
  IC50: > 25000 nM
[11]
  Rat carrageenan paw edema ED50: ~7 mg/kg
[12]
  rat adjuvant-induced arthritis ED50: 10 mg/kg
[13]
  IC50: 21 nM
[14]
  receptor screen: clean
[15]
  Kinase selectivity screen: no activity
